The values that follow come from US20260297095A1, “NOVEL PYRROLOTRIAZINE DERIVATIVE AND USE THEREOF” (Pelemed Co., Ltd., priority 2024, published 2026).

pIC50: −log10 of the molar value.

One test addresses YES1 kinase (Homo sapiens, UniProt P07947). In words: YES1 kinase inhibition, ADP Glo assay (Promega). It is filed as biochemical. Put shortly:
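ADP-Glo luminescence after a 40 min room-temperature reaction of YES1 with ATP and substrate (buffer with MnCl2 and DTT; 10 min compound preincubation) was used as readout. Percent inhibition at 1, 10 and 100 nM compound was calculated relative to negative control after background subtraction, and IC50 values derived.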

Test [1] deals with KYSE-70 esophageal cancer cell line. The test is described as follows: Cell growth inhibition of KYSE-70 (Sulforhodamine B). It is filed as cell-based. The note with it: KYSE-70, 72 hours; read-out: KYSE70 GI50. Put shortly: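 KYSE-70 cells (YES1-amplified) in RPMI-1640 with 10% FBS were seeded 24 h before treatment with compound at 0.0046–10 µM final. After 72 h, cells were TCA-fixed and stained with sulforhodamine B, with absorbance read at 510 nm. GI50 was derived with a time-zero plate set to 0% and the vehicle control to 100%, in duplicate tests.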

In the next test the target is T1, TEAD (Homo sapiens).
T1 construct: lentiviral TEAD luciferase reporter read-out
T1 sequence (P07947 whole entry): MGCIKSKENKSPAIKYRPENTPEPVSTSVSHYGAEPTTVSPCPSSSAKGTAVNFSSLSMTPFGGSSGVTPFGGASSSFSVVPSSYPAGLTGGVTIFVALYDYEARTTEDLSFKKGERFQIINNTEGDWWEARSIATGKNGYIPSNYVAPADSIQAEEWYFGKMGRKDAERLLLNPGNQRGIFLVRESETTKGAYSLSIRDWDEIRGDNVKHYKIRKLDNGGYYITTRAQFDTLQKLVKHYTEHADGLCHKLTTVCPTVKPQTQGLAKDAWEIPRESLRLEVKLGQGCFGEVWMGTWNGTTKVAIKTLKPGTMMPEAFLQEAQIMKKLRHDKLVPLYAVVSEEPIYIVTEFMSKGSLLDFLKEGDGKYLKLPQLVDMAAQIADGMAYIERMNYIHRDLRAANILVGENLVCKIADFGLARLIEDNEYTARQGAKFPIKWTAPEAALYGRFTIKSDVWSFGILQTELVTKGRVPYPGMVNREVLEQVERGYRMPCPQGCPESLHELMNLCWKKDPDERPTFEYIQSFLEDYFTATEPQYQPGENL
The test is described as follows: TEAD inhibition, KYSE-70 TEAD luciferase reporter cell line. It is filed as cell-based. The note with it: KYSE-70 TEAD luciferase reporter cells, 24 hours, normalized by cell viability; read-out: KYSE70 TEAD IC50. As to the method:
To evaluate the inhibitory activity on TEAD activity in KYSE-70 cells in which YES1 is overexpressed, the following experiment was performed.
TEAD luciferase reporter lentivirus (BPS Bioscience; TEAD luciferase reporter lentivirus) was co-cultured with KYSE-70 cell line for 48 hours, and then 1 μg/ml puromycin (Invitrogen) was added to the culture to induce cell death only in cells that were not infected with the virus, thereby generating a KYSE-70 cell line into which the TEAD luciferase reporter was introduced. The KYSE-70 TEAD luciferase reporter cell line was cultured in RPMI-1640 (Capricorn) supplemented with 10% FBS (Cellgro). The cells were seeded 24 hours prior to compound treatment into two 96-well F-bottom clear plates (Greiner) and two white clear bottom 96-well plates (Greiner), at 20,000 cells in 180 μL medium per well.
The 10 mM compound was diluted 100-fold in medium to prepare a 100 μM compound, then placed in a 96-well plate and further 3-fold diluted in medium to prepare a compound plate with concentrations ranging from 0.046 μM to 100 μM. 20 μL of each compound from the drug plate was injected into the cell-seeded plates to prepare the final concentrations 0.0046 μM to 10 μM. For TEAD activity measurement, 24 hours after compound treatment on the white clear bottom 96-well plate, 100 μL of medium was removed from each well, and 100 μL of One-Step™ Luciferase Assay System solution was added. After reacting at room temperature for 15 minutes, luminescence intensity was measured using a microplate reader (VICTOR X3, PerkinElmer). Since TEAD activity values needed to be normalized by cell viability, a cell viability assay was also performed. For measuring cell viability, 24 hours after compound treatment on the 96-well F-bottom clear plate, 50 μL of 33% trichloroacetic acid was added to each well and was fixed by incubating at 4° C. for 1 hour. After that, the plate was washed 5 times with sterile water, and 100 μL of 0.04% Sulforhodamine B solution in 1% acetic acid was added to react for 1 hour to stain the cells. After staining, the plates were washed 4 times with 1% acetic acid solution and completely dried. Then the Sulforhodamine B bound to cellular proteins was completely dissolved with 10 mM Tris base solution (pH 10.5). The absorbance was measured at a wavelength of 510 nm using a microplate reader (TECAN, sunrise microplate reader). The TEAD activity value and cell viability value were normalized, and a graph was drawn using the GraphPad Prism version 5.0 program, and the IC50 value was calculated.

YES1 kinase, sequence (P07947 whole entry): as above

Regarding “tert-butyl (4-(4-amino-7-(4-(tert-butyl)piperazin-1-yl)pyrrolo[2,1-f][1,2,4]triazin-5-yl)-2-methoxyphenyl)carbamate [Example 16]”, the “YES1 enzyme, % inhibition, 10 nM” value at YES1 kinase (compound 10 nM) came to 30%. For the same substance, the “YES1 enzyme, % inhibition, 100 nM” value at YES1 kinase (compound 100 nM) is given as 36%. For the same substance, the GI50 in test [1] lay in the range of 1 to 10 µM. Also, on TEAD (Homo sapiens), the pIC50 is 5.00 to 6.00.
